Molecules are shown by their SMILES.

The target of the assay is T1, Human Recombinant Matriptase 2 (Homo sapiens, UniProt Q8IU80).
T1 construct: purchased Enzo Life Sciences (an in-house preparation was also used) ALX-201-752-1
T1 sequence (Q8IU80 1-811): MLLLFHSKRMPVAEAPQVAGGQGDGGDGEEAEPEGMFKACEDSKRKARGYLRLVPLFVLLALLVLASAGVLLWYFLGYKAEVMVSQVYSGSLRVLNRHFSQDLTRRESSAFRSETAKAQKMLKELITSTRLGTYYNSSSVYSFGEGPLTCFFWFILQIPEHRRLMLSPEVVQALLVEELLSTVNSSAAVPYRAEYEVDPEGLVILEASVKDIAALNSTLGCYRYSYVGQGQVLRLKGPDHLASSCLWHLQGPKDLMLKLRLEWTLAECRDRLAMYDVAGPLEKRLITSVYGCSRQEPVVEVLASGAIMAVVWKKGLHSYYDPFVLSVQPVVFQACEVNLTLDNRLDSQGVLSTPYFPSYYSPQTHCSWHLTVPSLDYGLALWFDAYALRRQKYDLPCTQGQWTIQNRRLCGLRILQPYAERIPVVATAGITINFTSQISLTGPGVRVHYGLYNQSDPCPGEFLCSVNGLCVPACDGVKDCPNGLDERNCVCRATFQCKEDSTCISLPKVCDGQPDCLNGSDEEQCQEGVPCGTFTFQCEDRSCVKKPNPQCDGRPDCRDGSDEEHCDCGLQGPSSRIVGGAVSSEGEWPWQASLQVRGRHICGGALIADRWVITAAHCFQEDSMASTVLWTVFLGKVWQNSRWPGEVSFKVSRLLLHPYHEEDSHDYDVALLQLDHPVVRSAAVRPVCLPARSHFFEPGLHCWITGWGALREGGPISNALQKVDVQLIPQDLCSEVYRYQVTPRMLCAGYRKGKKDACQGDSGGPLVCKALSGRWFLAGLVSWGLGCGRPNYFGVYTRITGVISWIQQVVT
The experiment in a line: Matriptase 2 fluorescence based inhibition assay, Method B (50 mM TRIS pH 7.5, 150 mM NaCl, 0.01% gelatin). It is filed as biochemical. The following applies: 1 uM compound; Assay Used = B (Method B); read-out: Mar-2 % inhibition at 1 uM. Put shortly:
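Fluorogenic substrate Boc-Gln-Ala-Arg-7-amido-4-methylcoumarin (100 μM) cleavage read at Ex 360/Em 480 nm 60 min after addition, following 30 min enzyme–compound preincubation at 25° C. Enzyme was 7 nM commercial or 15 nM in-house; DMSO 1%. IC50s fitted by non-linear sigmoidal regression.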

Regarding `N=C(N)c1cc2c(cn1)cc(C(=O)NC1CCC(N)CC1)n2Cc1cccc2ccccc12` (centres unmarked) [Compound I-690], the inhibition at 1 µM lay within 75 to 100%.

Regarding `N#Cc1ccc(Cn2c(C(=O)N[C@H]3CC[C@H](N)CC3)cc3ccc(C(=N)N)cc32)c2ccccc12` [Compound I-691], the inhibition at 1 µM fell in the range of 75 to 100%.

On to `N=C(N)c1ccc2cc(C(=O)O)n(Cc3cc(N4CCOCC4=O)cc4ccccc34)c2c1` [Compound I-692], for which the inhibition at 1 µM was 0 to 25%.

Regarding `N=C(N)c1ccc2cc(C(=O)O)n(Cc3cc(Oc4ncccn4)cc4ccccc34)c2c1` [Compound I-693], the inhibition at 1 µM was in the range of 75 to 100%.

Turning to `N=C(N)c1ccc2cc(C(=O)N[C@H]3CC[C@H](N)CC3)n(Cc3cc(O)cc4ccccc34)c2c1` [Compound I-694], the inhibition at 1 µM lay within 75 to 100%.

`N=C(N)c1ccc2cc(C(=O)O)n(Cc3cc(O)cc4ccccc34)c2c1` [Compound I-695, 6-carbamimidoyl-1-((3-hydroxynaphthalen-1-yl)methyl)-1H-indole-2-carboxylic Acid]: the inhibition at 1 µM lay within 75 to 100%.

Turning to `COC(=O)c1cc2ccc(C(=N)N)cc2n1Cc1cc(O)cc2ccccc12` [Compound I-696], the inhibition at 1 µM is 50 to 75%.

With `CO/N=C(\N)c1ccc2cc(C(=O)OC)n(Cc3cccc4ccccc34)c2n1` [Compound I-697, Methyl (Z)-6-(N′-methoxycarbamimidoyl)-1-(naphthalen-1-ylmethyl)-1H-pyrrolo[2,3-b]pyridine-2-carboxylate], the inhibition at 1 µM is 0 to 25%.

For `CO/N=C(/N)c1ccc2cc(C(=O)O)n(Cc3cccc4ccccc34)c2c1` [Compound I-699, (E)-6-(N′-methoxycarbamimidoyl)-1-(naphthalen-1-ylmethyl)-1H-indole-2-carboxylic Acid], the inhibition at 1 µM was in the range of 0 to 25%.

For `COc1ccccc1Oc1cc(Cn2c(C(=O)N[C@H]3CC[C@H](N)CC3)cc3ccc(C(=N)N)cc32)c2ccccc2c1` [Compound I-700], the inhibition at 1 µM was in the range of 50 to 75%.

For `N=C(N)c1ccc2cc(C(=O)N[C@H]3CC[C@H](N)CC3)n(Cc3ccc(Oc4ccccc4)c4ccccc34)c2c1` [Compound I-701], the inhibition at 1 µM was in the range of 75 to 100%.

Regarding `N=C(N)c1ccc2cc(C(=O)N[C@H]3CC[C@H](N)CC3)n(Cc3cc(N4CCOCC4=O)cc4ccccc34)c2c1` [Compound I-702], the inhibition at 1 µM fell in the range of 25 to 50%.

In the case of `N=C(N)c1ccc2cc(C(=O)O)n(Cc3csc4ccccc34)c2c1` [Compound I-703], the inhibition at 1 µM lay within 50 to 75%.

As to `CO/N=C(\N)c1ccc2cc(C(=O)O)n(Cc3cccc4ccccc34)c2n1` [Compound I-704, (Z)-6-(N′-methoxycarbamimidoyl)-1-(naphthalen-1-ylmethyl)-1H-pyrrolo[2,3-b]pyridine-2-carboxylic Acid], the inhibition at 1 µM lay within 0 to 25%.

Regarding `N=C(N)c1ccc2cc(C(=O)O)n(Cc3ccc(Oc4ccccc4)c4ccccc34)c2c1` [Compound I-705], the inhibition at 1 µM was 50 to 75%.

Consider `N=C(N)c1cc2c(cn1)cc(C(=O)O)n2Cc1cccc2ccccc12` [Compound I-706], for which the inhibition at 1 µM was 25 to 50%.

As for `N=C(N)c1ccc2cc(C(=O)N[C@H]3CC[C@H](N)CC3)n(Cc3cccc4cc(Oc5ccccc5)ccc34)c2c1` [Compound I-707], the inhibition at 1 µM was in the range of 75 to 100%.

Consider `COC(=O)c1cc2ccc(C(=N)N)cc2n1Cc1csc2ccccc12` [Compound I-708], for which the inhibition at 1 µM lay in the range of 25 to 50%.

As to `COc1ccccc1Oc1cc(Cn2c(C(=O)O)cc3ccc(C(=N)N)cc32)c2ccccc2c1` [Compound I-709], the inhibition at 1 µM was in the range of 25 to 50%.

With `N=C(N)c1ccc2cc(-c3nnnn3CCO)n(Cc3cccc4ccccc34)c2c1` [Compound I-710], the inhibition at 1 µM lay within 75 to 100%.

As to `N=C(N)c1ccc2cc(C(=O)O)n(Cc3cc(Oc4ccc(-c5ccccc5)cc4)cc4ccccc34)c2c1` [Compound I-711], the inhibition at 1 µM lay within 25 to 50%.

Take `CCOC(=O)NC(=N)c1ccc2cc(C(=O)O)n(Cc3cccc4ccccc34)c2c1` [Compound I-712]: the inhibition at 1 µM fell in the range of 0 to 25%.

As for `N=C(N)c1cnc2cc(C(=O)O)n(Cc3cccc4ccccc34)c2c1` [Compound I-713], the inhibition at 1 µM lay in the range of 0 to 25%.

Turning to `Cc1cnc(-c2cc3ccc(C(=N)N)cc3n2Cc2cccc3ccccc23)[nH]1` [Compound I-714], the inhibition at 1 µM was 75 to 100%.

Consider `N=C(N)c1ccc2cc(C(=O)N[C@H]3CC[C@H](N)CC3)n(Cc3cc(Oc4ccc(-c5ccccc5)cc4)cc4ccccc34)c2c1` [Compound I-715], for which the inhibition at 1 µM is 0 to 25%.

`N=C(N)c1ccc2cc(CC(=O)O)n(Cc3cccc4ccccc34)c2c1` [Compound I-716, 2-(6-carbamimidoyl-1-(naphthalen-1-ylmethyl)-1H-indol-2-yl)acetic Acid]: the inhibition at 1 µM was in the range of 75 to 100%.

Take `N=C(N)c1ccc2cc(CC(=O)N[C@H]3CC[C@H](N)CC3)n(Cc3cccc4ccccc34)c2c1` [Compound I-717]: the inhibition at 1 µM was 75 to 100%.

Take `CO/N=C(\N)c1ccc2cc(C(=O)OC)n(Cc3cccc4ccccc34)c2c1` [Compound I-718, methyl (E)-6-(N′-methoxycarbamimidoyl)-1-(naphthalen-1-ylmethyl)-1H-indole-2-carboxylate]: the inhibition at 1 µM was in the range of 0 to 25%.

`CCOC(=O)c1cc2ccc(C(=N)NC(=O)OCC(C)C)cc2n1Cc1cccc2ccccc12` [Compound I-719, Ethyl 6-(N-(isobutoxycarbonyl)carbamimidoyl)-1-(naphthalen-1-ylmethyl)-1H-indole-2-carboxylate]: the inhibition at 1 µM is 0 to 25%.

In the case of `CCCCCCOC(=O)NC(=N)c1ccc2cc(C(=O)O)n(Cc3cccc4ccccc34)c2c1` [Compound I-720, Potassium 6-(N-((hexyloxy)carbonyl)carbamimidoyl)-1-(naphthalen-1-ylmethyl)-1H-indole-2-carboxylate], the inhibition at 1 µM lay in the range of 0 to 25%.

`N=C(N)c1ccc2cc(C(=O)N[C@H]3CC[C@H](N)CC3)n(Cc3cc(Oc4ccccc4)cc4ccccc34)c2n1` [Compound I-721]: the inhibition at 1 µM lay within 75 to 100%.

Consider `N=C(N)c1ccc2cc(C(=O)N[C@H]3CC[C@@H](N)CC3)n(Cc3csc4ccccc34)c2n1` [Compound I-722], for which the inhibition at 1 µM lay in the range of 75 to 100%.

Regarding `CS(=O)(=O)N[C@H]1CC[C@@H](NC(=O)c2cc3ccc(C(=N)N)nc3n2Cc2cccc3ccccc23)CC1` [Compound I-723], the inhibition at 1 µM was in the range of 75 to 100%.

Turning to `N=C(N)c1ccc2cc(C(=O)O)n(Cc3csc4ccccc34)c2n1` [Compound I-724], the inhibition at 1 µM lay in the range of 50 to 75%.

On to `N=C(N)c1ccc2cc(C(=O)N[C@H]3CC[C@H](N)CC3)n(Cc3cc(Sc4ccccc4)cc4ccccc34)c2c1` [Compound I-725], for which the inhibition at 1 µM is 75 to 100%.

Regarding `N=C(N)c1ccc2cc(N3CCOC3=O)n(Cc3cccc4ccccc34)c2c1` [Compound I-726, 1-(naphthalen-1-ylmethyl)-2-(2-oxooxazolidin-3-yl)-1H-indole-6-carboximidamide], the inhibition at 1 µM was 25 to 50%.

For `N=C(N)c1ccc2cc(C(=O)N[C@H]3CC[C@H](N)CC3)n(Cc3cc(S(=O)(=O)c4ccccc4)cc4ccccc34)c2c1` [Compound I-727], the inhibition at 1 µM was 75 to 100%.

Take `CS(=O)(=O)N[C@H]1CC[C@@H](NC(=O)c2cc3ccc(C(=N)N)cc3n2Cc2cccc3ccccc23)CC1` [Compound I-728]: the inhibition at 1 µM was in the range of 75 to 100%.

For the compound `N=C(N)c1ccc2cc(C(=O)N[C@H]3CC[C@H](NC=O)CC3)n(Cc3cccc4ccccc34)c2c1` [Compound I-729], the inhibition at 1 µM lay within 50 to 75%.

On to `N=C(N)c1ccc2cc(C(=O)O)n(Cc3cccc4c(Oc5ccccc5)cccc34)c2c1` [Compound I-730], for which the inhibition at 1 µM was in the range of 50 to 75%.

As to `N=C(N)c1ccc2cc(C(=O)N[C@H]3CC[C@H](N)CC3)n(Cc3cccc4c(Oc5ccccc5)cccc34)c2c1` [Compound I-731], the inhibition at 1 µM lay in the range of 75 to 100%.

Regarding `N=C(N)c1ccc2cc(C(=O)O)n(Cc3cc(Oc4ccccc4)cc4ccccc34)c2n1` [Compound I-732], the inhibition at 1 µM fell in the range of 25 to 50%.

Consider `N=C(N)c1ccc2cc(C(=O)N[C@H]3CC[C@H](N)CC3)n(Cc3cc(OCc4ccccc4)cc4ccccc34)c2c1` [Compound I-733], for which the inhibition at 1 µM is 75 to 100%.

For `N=C(N)c1ccc2cc(C(=O)N[C@H]3CC[C@H](NC(=O)NC(N)=O)CC3)n(Cc3cccc4ccccc34)c2c1` [Compound I-734], the inhibition at 1 µM was in the range of 50 to 75%.

Take `COC(=O)N[C@H]1CC[C@H](NC(=O)c2cc3ccc(C(=N)N)cc3n2Cc2cccc3ccccc23)CC1` [Compound I-735]: the inhibition at 1 µM is 25 to 50%.

Turning to `N=C(N)c1ccc2cc(C(=O)N[C@H]3CC[C@H](NC(N)=O)CC3)n(Cc3cccc4ccccc34)c2c1` [Compound I-736], the inhibition at 1 µM is 50 to 75%.

Take `N=C(N)c1ccc2cc(C(=O)N[C@H]3CC[C@H](N)CC3)n(Cc3cc(OCCc4ccccc4)cc4ccccc34)c2c1` [Compound I-737]: the inhibition at 1 µM is 75 to 100%.

For the origin of these results see US12428415B2, “Matriptase 2 inhibitors and uses thereof” (Disc Medicine, Inc., priority 2018, dated 2025).
